{"source": "patent US20160318892A1", "about": "“PRODRUG COMPOUNDS” (PROXIMAGEN LIMITED, priority 2013, published 2016)", "key": {"[1]": {"assay": "Solubility in aqueous solutions", "assay_type": "physicochemical", "details": "aqueous solution", "description": "In an embodiment prodrugs of the present invention are suitable for oral administration. The skilled person understands that the pH of the gastrointestinal tract changes along its length. For example, the stomach has a pH of around pH 1.5 and the GI tract after the stomach has a pH of around 5 to 7.5. For more detail see, for example, Measurement of gastrointestinal pH profiles in normal ambulant human subjects, Gut. 1988 August; 29(8): 1035-1041. Improved solubility is expected to result in improved absorption, and therefore improved oral bioavailability. Thus improved solubility at any pH value between around pH 1.5 to 8 is expected to improve oral bioavailability. Compounds of the invention were assessed for solubility in aqueous solutions having a pH of from 2 to 10. In an embodiment prodrugs of the invention have a solubility of >0.5 mg/mL in an aqueous solution having a pH of from 2 to 8. In an embodiment prodrugs have a solubility of >5.0 mg/mL, or >10.0 mg/mL, >100.0 mg/mL, or >200.0 mg/mL. In an embodiment the prodrugs have the aforementioned aqueous solubility at a pH within the range of from 4 to 8, or from 6 to 8.\nIn an embodiment prodrugs of the invention are administered intravenously. High prodrug solubility is advantageous in order to reduce the volume of solution administered to the patient, and to reduce the risk of damage to the circulatory system. Solubility of >10 mg/mL is preferred. Yet more preferred is solubility of >30 mg/mL or >100.0 mg/mL. Yet more preferred is solubility of >200.0 mg/mL. The solubility is measured in an aqueous solution having a pH of from 2 to 10, which pH range is advantageous for intravenous prodrug delivery. See, for example, A guide on intravenous drug compatibilities based on their pH, Nasser S C et al./Pharmacie Globale (IJCP) 2010, 5 (01)). In an embodiment the prodrugs of the claimed invention have solubility of >10 mg/mL in an aqueous solution having a pH of from 2 to 10."}, "[2]": {"tested_on": "high K+ evoked CSD", "details": "cats; cited from earlier work"}, "[3]": {"tested_on": "high K+ evoked CSD", "details": "rats; cited from earlier work"}, "[4]": {"tested_on": "unique stereo-selective site in rat brain", "details": "cited from earlier work"}, "[5]": {"tested_on": "unique stereo-selective site in human brain", "details": "cited from earlier work"}}, "note": "Like-named read-outs stand apart in the source and are kept apart here.", "data": [{"smiles": "CC(=O)c1ccc2c(c1)[C@H](NC(=O)c1ccc(F)cc1)[C@@H](OC(=O)[C@@H](NC(=O)[C@@H](N)C(C)C)C(C)C)C(C)(C)O2.Cl", "note": "[Example 4, (3R,4S)-6-Acetyl-4-[(4-fluorobenzene)amido]-2,2-dimethyl-3,4-dihydro-2H-1-benzopyran-3-yl (2S)-2-[(2S)-2-amino-3-methylbutanamido]-3-methylbutanoate hydrochloride]", "values": [{"measurement": "solubility", "setting": "[1]; pH 4.2, aqueous buffer", "result": "> 10000", "unit": "µg/mL"}]}, {"smiles": "CC(=O)c1ccc2c(c1)[C@H](NC(=O)c1ccc(F)cc1)[C@@H](OC(=O)CNC(=O)[C@@H]1CCCN1)C(C)(C)O2.Cl", "note": "[Example 6, (3R,4S)-6-Acetyl-4-[(4-fluorobenzene)amido]-2,2-dimethyl-3,4-dihydro-2H-1-benzopyran-3-yl 2-[(2S)-pyrrolidin-2-ylformamido]acetate hydrochloride]", "values": [{"measurement": "solubility", "setting": "[1]; pH 6.1, aqueous buffer", "result": "> 10000", "unit": "µg/mL"}]}, {"smiles": "CC(=O)c1ccc2c(c1)[C@H](NC(=O)c1ccc(F)cc1)[C@@H](OCOP(=O)([O-])O)C(C)(C)O2.[Na+]", "note": "[Example 2, Sodium {[(3R,4S)-6-Acetyl-4-[(4-fluorobenzene)amido]-2,2-dimethyl-3,4-dihydro-2H-1-benzopyran-3-yl]oxy}methyl hydrogen phosphate]", "values": [{"measurement": "solubility", "setting": "[1]; aqueous buffer, pH 4.0", "result": "> 10000", "unit": "µg/mL"}]}, {"smiles": "CC(=O)c1ccc2c(c1)[C@H](NC(=O)c1ccc(F)cc1)[C@@H](OP(=O)(O)O)C(C)(C)O2", "note": "[Example 1, {[(3R,4S)-6-Acetyl-4-[(4-fluorobenzene)amido]-2,2-dimethyl-3,4-dihydro-2H-1-benzopyran-3-yl]oxy}phosphonic acid]", "values": [{"measurement": "solubility", "setting": "[1]; aqueous buffer, pH 7.0", "result": "~10000", "unit": "µg/mL"}]}, {"smiles": "CC(=O)c1ccc2c(c1)[C@H](NC(=O)c1ccc(F)cc1)[C@@H](OC(=O)CN)C(C)(C)O2.Cl", "note": "[Example 5, (3R,4S)-6-Acetyl-4-[(4-fluorobenzene)amido]-2,2-dimethyl-3,4-dihydro-2H-1-benzopyran-3-yl 2-aminoacetate hydrochloride]", "values": [{"measurement": "solubility", "setting": "[1]; pH 5.1, aqueous buffer", "result": "> 5000", "unit": "µg/mL"}]}, {"smiles": "CC(=O)c1ccc2c(c1)[C@H](NC(=O)c1ccc(F)cc1)[C@@H](OC(=O)OCCN1CCOCC1)C(C)(C)O2.Cl", "note": "[Example 8, (3R,4S)-6-Acetyl-4-[(4-fluorobenzene)amido]-2,2-dimethyl-3,4-dihydro-2H-1-benzopyran-3-yl 2-(morpholin-4-yl)ethyl carbonate hydrochloride]", "values": [{"measurement": "solubility", "setting": "[1]; aqueous buffer, pH 4.0", "result": "~10000", "unit": "µg/mL"}]}, {"smiles": "CC(=O)c1ccc2c(c1)[C@H](NC(=O)c1ccc(F)c(Cl)c1)[C@H](O)C(C)(C)O2", "note": "[Tonabersat]", "values": [{"measurement": "inhibition of high K+ evoked CSD", "setting": "[2]", "result": "inhibits"}, {"measurement": "inhibition of high K+ evoked CSD", "setting": "[3]", "result": "inhibits"}, {"measurement": "binding affinity to unique stereo-selective site", "setting": "[4]", "result": "high affinity"}, {"measurement": "binding affinity to unique stereo-selective site", "setting": "[5]", "result": "high affinity"}]}, {"smiles": "CC(=O)c1ccc2c(c1)[C@H](NC(=O)c1ccc(F)cc1)[C@@H](OC(=O)[C@@H](N)C(C)C)C(C)(C)O2.Cl", "note": "[Example 3, (3R,4S)-6-Acetyl-4-[(4-fluorobenzene)amido]-2,2-dimethyl-3,4-dihydro-2H-1-benzopyran-3-yl (2S)-2-amino-3-methylbutanoate hydrochloride]", "values": [{"measurement": "solubility", "setting": "[1]; pH 3.6, aqueous buffer", "result": "< 1000", "unit": "µg/mL"}]}, {"smiles": "CC(=O)c1ccc2c(c1)[C@H](NC(=O)c1ccc(F)cc1)[C@@H](OC(=O)CNC(C)C)C(C)(C)O2.Cl", "note": "[Example 7, (3R,4S)-6-Acetyl-4-[(4-fluorobenzene)amido]-2,2-dimethyl-3,4-dihydro-2H-1-benzopyran-3-yl 2-[(propan-2-yl)amino]acetate hydrochloride]", "values": [{"measurement": "solubility", "setting": "[1]; pH 3.5, aqueous buffer", "result": "< 1000", "unit": "µg/mL"}]}]}
